Data published in patent US4361563A, “Pyridazinone-substituted benzimidazoles and salts” (priority 1978, dated 1982).

Legend:
[1] = tested on: cats; assay: Determination of the hypotensive and positive inotropic activity in the cat; type: in vivo; conditions: for change in vivo at 0.5 mg/kg / change in vivo at 2 mg/kg / change in vivo at 0.1 mg/kg: Felis catus, iv, read-out: Change of dp/dt in %
Experimental: TEST 2. DETERMINATION OF THE HYPOTENSIVE AND POSITIVE INOTROPIC ACTIVITY IN THE CAT
The tests were performed in cats which were anesthetized with pentobarbital sodium (40 mg/kg i.p.). The animals breathed spontaneously. The arterial blood pressure was measured in the aorta abdominalis by a Statham pressure transducer (P 23 Dc). The positive inotropic effect was determined by measuring the pressure in the left […] by means of a catheter tipmanometer (Millar PC 350 A). This contractility parameter dp/dtmax was registered by means of an analog differentiating circuit. The substances under test were injected into a vena femoralis. Physiological sodium […] solution or polydiol 200 was used as solvent.

[2] = Acute toxicity, single oral dose; type: in vivo; conditions: mouse, in vivo, po; read-out: Acute toxicity mg/kg p.o.
Experimental: (§1) The acute toxicity of the substances tested was determined in white mice after oral adminstration of a single dose (observation time: 14 days).

[3] = tested on: white mice; assay: Acute toxicity, single oral dose; type: in vivo; conditions: white mice, 600 mg/kg p.o., 14 days observation
Experimental: as §1

[4] = tested on: thrombocyte aggregation; assay: Determination of the thrombocyte aggregation according to Born and Cross (collagen-provoked, platelet-rich plasma); type: cell-based, healthy test persons; conditions: collagen-induced aggregation
Experimental: TEST 1. DETERMINATION OF THE THROMBOCYTE AGGREGATION ACCORDING TO BORN AND CROSS [J. PHYSIOL. 170, 397 (1964)].
The thrombocyte aggregation was measured in platelet-rich plasma of healthy test persons. The decrease of the optical density was photometrically measured and recorded after addition of commercial collagen (Sigma, St. Louis, Mo., USA) which contained […] of collagen-fibrils per ml. The velocity of aggregation (Vmax) was determined by the angle of inclination of the density curve. The point of the curve, where the most light was transmitted, served for the determination of the optical density (o.d.). To provoke maximum aggregation, approximately 0.01 ml of the collagen solution was added to 1 ml of platelet-rich plasma.

| SMILES | Change of blood pressure, first value of the pair (before the slash) ([1]; 0.5 mg/kg i.v.) [mgm Hg] | Change of blood pressure, second value of the pair (after the slash) ([1]; 0.5 mg/kg i.v.) [mgm Hg] | Duration of action ([1]; 0.5 mg/kg i.v.) [min] | Change of blood pressure, first value of the pair (before the slash) ([1]; 2.0 mg/kg i.v.) [mgm Hg] | Change of blood pressure, second value of the pair (after the slash) ([1]; 2.0 mg/kg i.v.) [mgm Hg] | Duration of action ([1]; 2.0 mg/kg i.v.) [min] | change in vivo at 0.5 mg/kg ([1]; 0.5 mg/kg i.v.) [%] | change in vivo at 2 mg/kg ([1]; 2.0 mg/kg i.v.) [%] | Change of blood pressure, first value of the pair (before the slash) ([1]; 0.1 mg/kg i.v.) [mgm Hg] | Change of blood pressure, second value of the pair (after the slash) ([1]; 0.1 mg/kg i.v.) [mgm Hg] | Duration of action ([1]; 0.1 mg/kg i.v.) [min] | change in vivo at 0.1 mg/kg ([1]; 0.1 mg/kg i.v.) [%] | LD50 at 336 h [2] [mg/kg] | animals died [3] | EC50 [4] [µM] |
| --- | --- | --- | --- | --- | --- | --- | --- | --- | --- | --- | --- | --- | --- | --- | --- |
| COc1ccc(-c2nc3cc(C4=NNC(=O)C(C)C4)ccc3[nH]2)cc1 (stereo not shown) [P, 2-(4-Methoxy-phenyl)-5(6)-(4-methyl-3-oxo-4,5-dihydro-2H-6-pyridazinyl)-benzimidazole, reference compound] | -10 | -10 | 1 | -35 | -35 | 1 | 9 | 5 |  |  |  |  |  |  |  |
| COc1ccc(-c2nc3cc(C4=NNC(=O)CC4C)ccc3[nH]2)c(OC)c1 (stereo not shown) [Compound E, 2-(2,4-Dimethoxy-phenyl)-5(6)-(5-methyl-3-oxo-4,5-dihydro-2H-6-pyridazinyl)-benzimidazole] | -28 | -33 | > 55 |  |  |  | 89 |  |  |  |  |  |  |  |  |
| COc1ccc(-c2nc3cc(C4=NN(C)C(=O)C(C)C4)ccc3[nH]2)cc1 (stereo not shown) [Q, 2-(4-Methoxy-phenyl)-5(6)-(2,4-dimethyl-3-oxo-4,5-dihydro-2H-6-pyridazinyl)-benzimidazole, reference compound] | -12 | -12 | 11 | -40 |  | 3 | -16 | -26 |  |  |  |  |  |  |  |
| Cc1nc2cc(C3=NNC(=O)CC3C)ccc2n1Cc1ccccc1 (stereo not shown) [M, 1-Benzyl-2-methyl-5-(5-methyl-3-oxo-4,5-dihydro-2H-6-pyridazinyl)-benzimidazole] | -57 | -48 | > 110 |  |  |  | 106 |  | -37 | -33 | > 62 | 123 |  |  |  |
| CSc1nc2cc(C3=NNC(=O)CC3C)ccc2[nH]1 (stereo not shown) [F, 2-Methylmercapto-5(6)-(5-methyl-3-oxo-4,5-dihydro-2H-6-pyridazinyl)-benzimidazole] | -48 | -66 | > 32 |  |  |  | 50 |  | -36 | -40 | > 28 | 51 |  |  |  |
| CC1CC(=O)NN=C1c1ccc2[nH]c(-c3ccccc3F)nc2c1 (stereo not shown) [D, 2-(2-Fluoro-phenyl)-5(6)-(5-methyl-3-oxo-4,5-dihydro-2H-6-pyridazinyl)-benzimidazole] |  | -10 | > 69 |  |  |  | 107 |  |  |  |  |  | > 600 | 0 out of 6 |  |
| COc1ccc(-c2nc3ccc(C4=NNC(=O)CC4C)cc3[nH]2)cc1 (stereo not shown) [G, 2-(4-Methoxy-phenyl)-5(6)-(5-methyl-3-oxo-4,5-dihydro-2H-6-pyridazinyl)-benzimidazole] | -18 | -18 | > 72 |  |  |  | 64 |  |  | 0 | > 26 | 23 | ~600 | 3 out of 6 | 0.08 |
| CC1CC(=O)NN=C1c1ccc2[nH]cnc2c1 (stereo not shown) [C, 5(6)-(5-Methyl-3-oxo-4,5-dihydro-2H-6-pyridazinyl)-benzimidazole] | -55 | -48 | > 172 |  |  |  | 159 |  |  |  |  |  |  |  | 0.12 |
